Results: ChEMBL document CHEMBL6153041, “Discovery of High-Affinity SMARCA2/4 Bromodomain Ligands and Development of Potent and Exceptionally Selective SMARCA2 PROTAC Degraders” (J Med Chem, 2025)

Key:
[1] = tested on: von Hippel-Lindau disease tumor suppressor/SWI/SNF-related matrix-associated actin-dependent regulator of chromatin subfamily A member 4 (Homo sapiens), P51532+P40337 [UNDEFINED MUTATION]; experiment: PROTAC activity at VHL1/SMARCA4 mutant in human NCI-H838 cells assessed as maximal degradation measured after 24 hrs incubation by Western blot analysis relative to control; assay type: cell-based
[2] = target: T1, von Hippel-Lindau disease tumor suppressor/SWI/SNF-related matrix-associated actin-dependent regulator of chromatin subfamily A member 2 (Homo sapiens, UniProt P51531+P40337); experiment: PROTAC activity at VHL1/SMARCA2 in human genetically modified Hela cells assessed as maximal degradation measured after 4 hrs incubation by Nano-Glo HiBiT Lytic Detection Assay relative to control; assay type: cell-based
Target sequence in this assay (P40337 whole entry, looked up): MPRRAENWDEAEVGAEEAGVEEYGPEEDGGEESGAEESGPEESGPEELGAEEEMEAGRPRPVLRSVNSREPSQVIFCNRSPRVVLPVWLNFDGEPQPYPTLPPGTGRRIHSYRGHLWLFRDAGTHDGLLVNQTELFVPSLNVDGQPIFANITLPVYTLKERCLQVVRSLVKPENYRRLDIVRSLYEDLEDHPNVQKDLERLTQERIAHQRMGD
Target sequence in this assay (P51531 whole entry, looked up): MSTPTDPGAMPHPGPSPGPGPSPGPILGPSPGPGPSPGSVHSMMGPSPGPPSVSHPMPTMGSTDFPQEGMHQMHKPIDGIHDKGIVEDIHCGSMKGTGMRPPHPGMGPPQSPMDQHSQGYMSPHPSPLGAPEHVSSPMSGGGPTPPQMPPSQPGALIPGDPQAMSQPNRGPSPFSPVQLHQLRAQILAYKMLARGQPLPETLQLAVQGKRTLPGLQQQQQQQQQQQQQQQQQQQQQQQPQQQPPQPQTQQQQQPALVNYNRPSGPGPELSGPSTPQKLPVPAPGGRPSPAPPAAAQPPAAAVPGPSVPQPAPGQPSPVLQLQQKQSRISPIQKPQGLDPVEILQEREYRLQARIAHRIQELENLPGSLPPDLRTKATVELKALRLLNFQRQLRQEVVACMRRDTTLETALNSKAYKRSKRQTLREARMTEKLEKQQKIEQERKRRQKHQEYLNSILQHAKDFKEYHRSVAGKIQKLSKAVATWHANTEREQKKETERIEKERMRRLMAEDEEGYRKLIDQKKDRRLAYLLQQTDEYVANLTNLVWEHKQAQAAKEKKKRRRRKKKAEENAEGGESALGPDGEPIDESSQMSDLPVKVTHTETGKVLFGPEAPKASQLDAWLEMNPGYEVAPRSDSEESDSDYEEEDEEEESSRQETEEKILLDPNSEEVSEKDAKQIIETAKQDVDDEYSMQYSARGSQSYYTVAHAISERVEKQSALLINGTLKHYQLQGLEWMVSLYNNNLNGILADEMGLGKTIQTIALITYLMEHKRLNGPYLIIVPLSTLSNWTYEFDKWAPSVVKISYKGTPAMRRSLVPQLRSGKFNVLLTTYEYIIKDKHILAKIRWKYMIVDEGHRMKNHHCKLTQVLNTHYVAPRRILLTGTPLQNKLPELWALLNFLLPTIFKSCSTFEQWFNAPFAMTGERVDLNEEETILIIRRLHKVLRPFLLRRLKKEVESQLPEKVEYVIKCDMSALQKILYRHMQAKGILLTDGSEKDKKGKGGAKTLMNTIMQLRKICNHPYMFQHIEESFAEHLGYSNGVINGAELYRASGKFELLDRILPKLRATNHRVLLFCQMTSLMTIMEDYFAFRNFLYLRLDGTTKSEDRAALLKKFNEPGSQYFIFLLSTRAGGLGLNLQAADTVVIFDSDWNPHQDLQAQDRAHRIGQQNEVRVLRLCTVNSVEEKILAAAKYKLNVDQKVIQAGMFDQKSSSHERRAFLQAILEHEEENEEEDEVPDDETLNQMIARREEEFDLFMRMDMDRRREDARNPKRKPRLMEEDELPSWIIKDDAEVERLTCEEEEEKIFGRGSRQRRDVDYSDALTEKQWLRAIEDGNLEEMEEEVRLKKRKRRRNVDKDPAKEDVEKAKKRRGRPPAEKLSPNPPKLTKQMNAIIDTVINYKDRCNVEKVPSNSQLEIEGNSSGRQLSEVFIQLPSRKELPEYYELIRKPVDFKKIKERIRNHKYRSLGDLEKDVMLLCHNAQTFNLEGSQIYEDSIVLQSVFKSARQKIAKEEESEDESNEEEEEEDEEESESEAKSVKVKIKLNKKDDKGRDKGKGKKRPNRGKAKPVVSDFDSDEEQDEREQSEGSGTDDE

[3] = target: T2, von Hippel-Lindau disease tumor suppressor/SWI/SNF-related matrix-associated actin-dependent regulator of chromatin subfamily A member 4 (Homo sapiens, UniProt P51532+P40337); experiment: PROTAC activity at VHL1/SMARCA4 mutant in human SK-MEL-5 cells assessed as degradation measured after 24 hrs incubation by Western blot analysis; assay type: cell-based
[4] = target: T1, von Hippel-Lindau disease tumor suppressor/SWI/SNF-related matrix-associated actin-dependent regulator of chromatin subfamily A member 2; experiment: PROTAC activity at VHL1/SMARCA2 in human NCI-H1792 cells assessed as maximal degradation measured after 24 hrs incubation by Western blot analysis relative to control; assay type: cell-based
Target sequence in this assay (P40337 whole entry, looked up): as the sequence (P40337 whole entry, looked up) above
Target sequence in this assay (P51531 whole entry, looked up): as the sequence (P51531 whole entry, looked up) above

[5] = target: T1, von Hippel-Lindau disease tumor suppressor/SWI/SNF-related matrix-associated actin-dependent regulator of chromatin subfamily A member 2; experiment: PROTAC activity at VHL1/SMARCA2 in human genetically modified Hela cells assessed as maximal degradation measured after 48 hrs incubation by Nano-Glo HiBiT Lytic Detection Assay relative to control; assay type: cell-based
Target sequence in this assay (P40337 whole entry, looked up): as the sequence (P40337 whole entry, looked up) above
Target sequence in this assay (P51531 whole entry, looked up): as the sequence (P51531 whole entry, looked up) above

[6] = target: T2, von Hippel-Lindau disease tumor suppressor/SWI/SNF-related matrix-associated actin-dependent regulator of chromatin subfamily A member 4; experiment: PROTAC activity at VHL1/SMARCA4 in human NCI-H1792 cells assessed as maximal degradation measured after 24 hrs incubation by Western blot analysis relative to control; assay type: cell-based
Target sequence in this assay (P40337 whole entry, looked up): as the sequence (P40337 whole entry, looked up) above
Target sequence in this assay (P51532 whole entry, looked up): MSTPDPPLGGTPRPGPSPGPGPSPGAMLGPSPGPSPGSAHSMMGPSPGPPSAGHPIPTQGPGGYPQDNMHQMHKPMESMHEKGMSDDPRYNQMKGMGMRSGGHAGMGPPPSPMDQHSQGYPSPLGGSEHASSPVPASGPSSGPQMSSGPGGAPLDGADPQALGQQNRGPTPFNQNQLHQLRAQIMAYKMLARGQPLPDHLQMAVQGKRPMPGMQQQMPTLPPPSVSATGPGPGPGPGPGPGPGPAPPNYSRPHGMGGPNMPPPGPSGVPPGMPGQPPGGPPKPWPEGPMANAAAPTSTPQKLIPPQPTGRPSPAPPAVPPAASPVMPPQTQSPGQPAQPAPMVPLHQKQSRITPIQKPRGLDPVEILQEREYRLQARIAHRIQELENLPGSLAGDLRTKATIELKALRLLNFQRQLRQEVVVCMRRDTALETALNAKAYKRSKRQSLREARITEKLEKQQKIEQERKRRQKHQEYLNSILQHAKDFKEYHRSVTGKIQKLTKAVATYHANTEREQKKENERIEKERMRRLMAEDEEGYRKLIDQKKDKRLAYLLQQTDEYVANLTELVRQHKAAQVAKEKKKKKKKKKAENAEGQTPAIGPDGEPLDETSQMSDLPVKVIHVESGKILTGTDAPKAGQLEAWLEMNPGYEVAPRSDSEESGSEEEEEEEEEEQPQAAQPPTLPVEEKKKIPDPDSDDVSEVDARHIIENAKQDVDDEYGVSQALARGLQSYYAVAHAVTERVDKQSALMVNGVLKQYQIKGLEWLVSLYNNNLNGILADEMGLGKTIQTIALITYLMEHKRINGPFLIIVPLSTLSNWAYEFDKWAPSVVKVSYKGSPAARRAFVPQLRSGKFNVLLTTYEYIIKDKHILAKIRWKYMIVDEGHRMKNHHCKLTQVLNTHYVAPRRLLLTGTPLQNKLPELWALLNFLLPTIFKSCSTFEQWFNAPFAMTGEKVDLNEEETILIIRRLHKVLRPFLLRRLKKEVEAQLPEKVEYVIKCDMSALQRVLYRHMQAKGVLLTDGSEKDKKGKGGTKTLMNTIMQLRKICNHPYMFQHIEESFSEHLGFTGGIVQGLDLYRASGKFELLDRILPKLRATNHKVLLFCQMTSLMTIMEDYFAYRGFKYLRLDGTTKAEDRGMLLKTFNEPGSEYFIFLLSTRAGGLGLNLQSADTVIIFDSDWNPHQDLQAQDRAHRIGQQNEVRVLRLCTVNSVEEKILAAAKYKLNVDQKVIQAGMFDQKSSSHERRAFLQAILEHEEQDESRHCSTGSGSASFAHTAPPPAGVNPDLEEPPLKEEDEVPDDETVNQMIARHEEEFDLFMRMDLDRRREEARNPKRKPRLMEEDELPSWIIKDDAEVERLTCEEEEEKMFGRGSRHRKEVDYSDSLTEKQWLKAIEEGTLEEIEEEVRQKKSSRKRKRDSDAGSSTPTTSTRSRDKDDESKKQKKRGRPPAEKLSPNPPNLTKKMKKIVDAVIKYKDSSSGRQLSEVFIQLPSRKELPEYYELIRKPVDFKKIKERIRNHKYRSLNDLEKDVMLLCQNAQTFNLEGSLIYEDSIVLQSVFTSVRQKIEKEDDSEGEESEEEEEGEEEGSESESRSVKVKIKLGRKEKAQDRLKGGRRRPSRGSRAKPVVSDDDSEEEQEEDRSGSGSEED

[7] = target: T2, von Hippel-Lindau disease tumor suppressor/SWI/SNF-related matrix-associated actin-dependent regulator of chromatin subfamily A member 4; experiment: PROTAC activity at VHL1/SMARCA4 in human genetically modified Hela cells assessed as maximal degradation measured after 48 hrs incubation by Nano-Glo HiBiT Lytic Detection Assay relative to control; assay type: cell-based
Target sequence in this assay (P40337 whole entry, looked up): as the sequence (P40337 whole entry, looked up) above
Target sequence in this assay (P51532 whole entry, looked up): as the sequence (P51532 whole entry, looked up) above

NCI-H1792 [8] = experiment: Anticancer activity against human NCI-H1792 cells harbouring wild type SMARCA4 assessed as maximal inhibition of cell growth measured after 7 days incubation by WST-8 assay relative to control; assay type: functional; settings: time 7 day
[9] = target: T2, von Hippel-Lindau disease tumor suppressor/SWI/SNF-related matrix-associated actin-dependent regulator of chromatin subfamily A member 4; experiment: PROTAC activity at VHL1/SMARCA4 in human genetically modified Hela cells assessed as degradation measured after 4 hrs incubation by Nano-Glo HiBiT Lytic Detection Assay; assay type: cell-based
[10] = target: T2, von Hippel-Lindau disease tumor suppressor/SWI/SNF-related matrix-associated actin-dependent regulator of chromatin subfamily A member 4; experiment: PROTAC activity at VHL1/SMARCA4 in human genetically modified Hela cells assessed as maximal degradation measured after 8 hrs incubation by Nano-Glo HiBiT Lytic Detection Assay relative to control; assay type: cell-based
Target sequence in this assay (P40337 whole entry, looked up): as the sequence (P40337 whole entry, looked up) above
Target sequence in this assay (P51532 whole entry, looked up): as the sequence (P51532 whole entry, looked up) above

[11] = target: T2, von Hippel-Lindau disease tumor suppressor/SWI/SNF-related matrix-associated actin-dependent regulator of chromatin subfamily A member 4; experiment: PROTAC activity at VHL1/SMARCA4 mutant in human NCI-H838 cells assessed as degradation measured after 24 hrs incubation by Western blot analysis; assay type: cell-based
[12] = target: T1, von Hippel-Lindau disease tumor suppressor/SWI/SNF-related matrix-associated actin-dependent regulator of chromatin subfamily A member 2; experiment: PROTAC activity at VHL1/SMARCA2 in human genetically modified Hela cells assessed as maximal degradation measured after 8 hrs incubation by Nano-Glo HiBiT Lytic Detection Assay relative to control; assay type: cell-based
Target sequence in this assay (P40337 whole entry, looked up): as the sequence (P40337 whole entry, looked up) above
Target sequence in this assay (P51531 whole entry, looked up): as the sequence (P51531 whole entry, looked up) above

[13] = target: T2, von Hippel-Lindau disease tumor suppressor/SWI/SNF-related matrix-associated actin-dependent regulator of chromatin subfamily A member 4; experiment: PROTAC activity at VHL1/SMARCA4 in human genetically modified Hela cells assessed as degradation measured after 8 hrs incubation by Nano-Glo HiBiT Lytic Detection Assay; assay type: cell-based
[14] = target: T1, von Hippel-Lindau disease tumor suppressor/SWI/SNF-related matrix-associated actin-dependent regulator of chromatin subfamily A member 2; experiment: PROTAC activity at VHL1/SMARCA2 in human genetically modified Hela cells assessed as degradation measured after 8 hrs incubation by Nano-Glo HiBiT Lytic Detection Assay; assay type: cell-based
[15] = target: T1, von Hippel-Lindau disease tumor suppressor/SWI/SNF-related matrix-associated actin-dependent regulator of chromatin subfamily A member 2; experiment: PROTAC activity at VHL1/SMARCA2 in human genetically modified Hela cells assessed as degradation measured after 48 hrs incubation by Nano-Glo HiBiT Lytic Detection Assay; assay type: cell-based
SK-MEL-28 [16] = experiment: Anticancer activity against human SK-MEL-28 cells harbouring wild type SMARCA4 assessed as maximal inhibition of cell growth measured after 7 days incubation by WST-8 assay relative to control; assay type: functional; settings: time 7 day
[17] = target: T1, von Hippel-Lindau disease tumor suppressor/SWI/SNF-related matrix-associated actin-dependent regulator of chromatin subfamily A member 2; experiment: PROTAC activity at VHL1/SMARCA2 in human NCI-H1792 cells assessed as degradation measured after 24 hrs incubation by Western blot analysis; assay type: cell-based
SK-MEL-5 [18] = experiment: Anticancer activity against SMARCA4 deficient human SK-MEL-5 cells assessed as inhibition of cell growth measured after 7 days incubation by WST-8 assay; assay type: functional; settings: SK-MEL-5, 168 h, time 7 day
SK-MEL-5 [19] = experiment: Anticancer activity against SMARCA4 deficient human SK-MEL-5 cells assessed as maximal inhibition of cell growth measured after 7 days incubation by WST-8 assay relative to control; assay type: functional; settings: time 7 day
[20] = tested on: von Hippel-Lindau disease tumor suppressor/SWI/SNF-related matrix-associated actin-dependent regulator of chromatin subfamily A member 4 (Homo sapiens), P51532+P40337 [UNDEFINED MUTATION]; experiment: PROTAC activity at VHL1/SMARCA4 mutant in human SK-MEL-5 cells assessed as maximal degradation measured after 24 hrs incubation by Western blot analysis relative to control; assay type: cell-based
[21] = Anticancer activity against SMARCA4 deficient human NCI-H838 cells assessed as inhibition of cell growth measured after 7 days incubation by WST-8 assay; assay type: functional; settings: NCI-H838, 168 h, time 7 day
SK-MEL-28 [22] = experiment: Anticancer activity against human SK-MEL-28 cells harbouring wild type SMARCA4 assessed as inhibition of cell growth measured after 7 days incubation by WST-8 assay; assay type: functional; settings: SK-MEL-28, 168 h, time 7 day
[23] = Anticancer activity against SMARCA4 deficient human NCI-H838 cells assessed as maximal inhibition of cell growth measured after 7 days incubation by WST-8 assay relative to control; assay type: functional; settings: time 7 day
[24] = target: T1, von Hippel-Lindau disease tumor suppressor/SWI/SNF-related matrix-associated actin-dependent regulator of chromatin subfamily A member 2; experiment: PROTAC activity at VHL1/SMARCA2 in human genetically modified Hela cells assessed as degradation measured after 24 hrs incubation by Nano-Glo HiBiT Lytic Detection Assay; assay type: cell-based
NCI-H1792 [25] = experiment: Anticancer activity against human NCI-H1792 cells harbouring wild type SMARCA4 assessed as inhibition of cell growth measured after 7 days incubation by WST-8 assay; assay type: functional; settings: NCI-H1792, 168 h, time 7 day
[26] = target: T2, von Hippel-Lindau disease tumor suppressor/SWI/SNF-related matrix-associated actin-dependent regulator of chromatin subfamily A member 4; experiment: PROTAC activity at VHL1/SMARCA4 in human genetically modified Hela cells assessed as degradation measured after 24 hrs incubation by Nano-Glo HiBiT Lytic Detection Assay; assay type: cell-based
[27] = target: T2, von Hippel-Lindau disease tumor suppressor/SWI/SNF-related matrix-associated actin-dependent regulator of chromatin subfamily A member 4; experiment: PROTAC activity at VHL1/SMARCA4 in human genetically modified Hela cells assessed as degradation measured after 48 hrs incubation by Nano-Glo HiBiT Lytic Detection Assay; assay type: cell-based
[28] = target: T1, von Hippel-Lindau disease tumor suppressor/SWI/SNF-related matrix-associated actin-dependent regulator of chromatin subfamily A member 2; experiment: PROTAC activity at VHL1/SMARCA2 in human genetically modified Hela cells assessed as maximal degradation measured after 24 hrs incubation by Nano-Glo HiBiT Lytic Detection Assay relative to control; assay type: cell-based
Target sequence in this assay (P40337 whole entry, looked up): as the sequence (P40337 whole entry, looked up) above
Target sequence in this assay (P51531 whole entry, looked up): as the sequence (P51531 whole entry, looked up) above

[29] = target: T2, von Hippel-Lindau disease tumor suppressor/SWI/SNF-related matrix-associated actin-dependent regulator of chromatin subfamily A member 4; experiment: PROTAC activity at VHL1/SMARCA4 in human genetically modified Hela cells assessed as maximal degradation measured after 4 hrs incubation by Nano-Glo HiBiT Lytic Detection Assay relative to control; assay type: cell-based
Target sequence in this assay (P40337 whole entry, looked up): as the sequence (P40337 whole entry, looked up) above
Target sequence in this assay (P51532 whole entry, looked up): as the sequence (P51532 whole entry, looked up) above

[30] = target: T2, von Hippel-Lindau disease tumor suppressor/SWI/SNF-related matrix-associated actin-dependent regulator of chromatin subfamily A member 4; experiment: PROTAC activity at VHL1/SMARCA4 in human NCI-H1792 cells assessed as degradation measured after 24 hrs incubation by Western blot analysis; assay type: cell-based
[31] = target: T1, von Hippel-Lindau disease tumor suppressor/SWI/SNF-related matrix-associated actin-dependent regulator of chromatin subfamily A member 2; experiment: PROTAC activity at VHL1/SMARCA2 in human genetically modified Hela cells assessed as degradation measured after 4 hrs incubation by Nano-Glo HiBiT Lytic Detection Assay; assay type: cell-based
HeLa = experiment: Selectivity ratio, ratio of DC50 for VHL1/SMARCA4 in human genetically modified Hela cells to VHL1/SMARCA2 in human genetically modified Hela cells; assay type: cell-based
[32] = target: T2, von Hippel-Lindau disease tumor suppressor/SWI/SNF-related matrix-associated actin-dependent regulator of chromatin subfamily A member 4; experiment: PROTAC activity at VHL1/SMARCA4 in human genetically modified Hela cells assessed as maximal degradation measured after 24 hrs incubation by Nano-Glo HiBiT Lytic Detection Assay relative to control; assay type: cell-based
Target sequence in this assay (P40337 whole entry, looked up): as the sequence (P40337 whole entry, looked up) above
Target sequence in this assay (P51532 whole entry, looked up): as the sequence (P51532 whole entry, looked up) above

[33] = target: SWI/SNF-related matrix-associated actin-dependent regulator of chromatin subfamily A member 4 (Homo sapiens, UniProt P51532); experiment: Binding affinity to SMARCA4 (unknown origin) assessed as dissociation constant
[34] = target: T2, von Hippel-Lindau disease tumor suppressor/SWI/SNF-related matrix-associated actin-dependent regulator of chromatin subfamily A member 4; experiment: PROTAC activity at VHL/SMARCA4 in human MV4-11 cells assessed as maximal degradation relative to control; assay type: cell-based
Target sequence in this assay (P40337 whole entry, looked up): as the sequence (P40337 whole entry, looked up) above
Target sequence in this assay (P51532 whole entry, looked up): as the sequence (P51532 whole entry, looked up) above

[35] = target: T1, von Hippel-Lindau disease tumor suppressor/SWI/SNF-related matrix-associated actin-dependent regulator of chromatin subfamily A member 2; experiment: PROTAC activity at VHL/SMARCA2 in human MV4-11 cells assessed as maximal degradation relative to control; assay type: cell-based
[36] = target: T2, von Hippel-Lindau disease tumor suppressor/SWI/SNF-related matrix-associated actin-dependent regulator of chromatin subfamily A member 4; experiment: PROTAC activity at VHL/SMARCA4 in human MV4-11 cells assessed as degradation; assay type: cell-based

## Cc1ncsc1-c1ccc([C@H](CCCCCN2CCC(c3ccc4c(c3)C3(CCCCC3)c3nc(=O)c5c(Cl)cccc5n3-4)CC2)NC(=O)[C@@H]2C[C@@H](O)CN2C(=O)[C@@H](NC(=O)C2(F)CC2)C(C)(C)C)cc1
[1]
  Emax: 89%
[2]
  Emax: 97%
[3]
  DC50: 81.1 nM
[4]
  Emax: 99%
[5]
  Emax: 99%
[6]
  Emax: 99%
[7]
  Emax: 98%
NCI-H1792 [8]
  Imax: 52%
[9]
  DC50: 38 nM
[10]
  Emax: 96%
[11]
  DC50: 76.2 nM
[12]
  Emax: 97%
[13]
  DC50: 27 nM
[14]
  DC50: 6 nM
[15]
  DC50: 4 nM
SK-MEL-28 [16]
  Imax: 91%
[17]
  DC50: 1.7 nM
SK-MEL-5 [18]
  GI50: 1.1 nM
SK-MEL-5 [19]
  Imax: 96%
[20]
  Emax: 87%
[21]
  GI50: 10.5 nM
SK-MEL-28 [22]
  GI50: 24.8 nM
[23]
  Imax: 92%
[24]
  DC50: 0.4 nM
NCI-H1792 [25]
  GI50: 10.5 nM
[26]
  DC50: 3.3 nM
[27]
  DC50: 27 nM
[28]
  Emax: 97%
[29]
  Emax: 96%
[30]
  DC50: 26 nM
[31]
  DC50: 10 nM
HeLa
  Ratio: 8
[32]
  Emax: 96%

## Cn1cc(-c2cc(-c3ccccc3O)nnc2N)cn1
[33]
  Kd: 12.8 nM

## Cc1ncsc1-c1ccc(CNC(=O)[C@@H]2C[C@@H](O)CN2C(=O)[C@@H](NC(=O)C2(F)CC2)C(C)(C)C)c(OCCOc2ccc(CN3CCN(c4cc(-c5ccccc5O)nnc4N)CC3)cc2)c1
[34]
  Emax: > 95%
[35]
  DC50: 11 nM
[36]
  Emax: > 95%
